Earlier results as cited in patent US6765015B2, “Halogenated paclitaxel derivatives” (Xechem International, Inc., priority 1995, dated 2004).

System: leukemic tumors
Details: in vivo

Structure (SMILES): C/C=C(\C)C(=O)N[C@@H](c1ccccc1)[C@@H](O)C(=O)O[C@H]1C[C@@]2(O)[C@@H](OC(=O)c3ccccc3)[C@@H]3[C@]4(OC(C)=O)CO[C@@H]4C[C@H](O)[C@@]3(C)C(=O)[C@H](OC(C)=O)C(=C1C)C2(C)C [Cephalomannine, cephalomannine]
- remission of leukemic tumors: effective in causing remission of leukemic tumors
